This passage reports RP-LC retention time results from the METLIN SMRT retention time set (Domingo-Almenara et al. 2019).

Structures are written as SMILES.

The data set is described as follows: gradient 5% acetonitrile 3 min, to 50% in 2 min, to 85% in 15 min, held 3 min, 100 µL/min. As to conditions: column: Zorbax Extend-C18 2.1 x 50 mm; eluents: water / acetonitrile, 0.1% formic acid. An outline of the steps: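 Retention times of pure standards were taken from adduct peaks that were selected by computer and manually inspected. Over 3 months, mixtures of ~100 molecules were run by HPLC–quadrupole time-of-flight mass spectrometry in positive and negative ionization mode. The Zorbax Extend-C18 column (2.1 × 50 mm, 1.8 μm) ran at 100 μL/min in water and acetonitrile, each containing 0.1% formic acid, with 40 μL dead volume and 900 μL dwell volume.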
The compound `O=C(C1CC1)N1CCc2sc(S(=O)(=O)Nc3ccc(F)cc3)cc2C1` displayed an RP-LC retention time of 799 s. As to `CCOC(=O)c1c(C)oc2ncnc(NCC3CCN(Cc4ccccc4F)CC3)c12`, the RP-LC retention time amounted to 694 s. The result for `O=S(=O)(c1ccc(F)c(F)c1)N1CCC(CN2CCCCCC2)CC1` reads 666 s; that for `O=C(Cn1cnc2onc(-c3ccc(Cl)cc3)c2c1=O)N1CCCc2ccccc21`, 1100 s; that for `Cc1nc(-c2ccc(C(=O)N3CC(=O)Nc4ccccc43)cc2)no1`, 668 s.

Regarding `Cc1oc(-c2ccc(C(=O)NCCc3ccco3)cc2)nc1CN1CCc2ccccc21`, the RP-LC retention time is 1050 s. As for `Cc1ccc(C(=O)NCCc2cn3ccsc3n2)cc1[N+](=O)[O-]`, the RP-LC retention time worked out at 559 s. The result for `O=C(CCc1nc(-c2cccnc2)no1)NCCc1c[nH]c2ccccc12` reads 709 s; that for `O=C1NC2CCCCC2C2=NC(CN3CCN(c4ccccc4)CC3)CN12` (stereo not given), 655 s. The result for `COc1ccc2cc(C(=O)N3CCC(CC(=O)NCCc4c[nH]c5ccc(OC)cc45)CC3)[nH]c2c1` reads 759 s. For `CCOc1ccccc1-c1nc(-c2cn(-c3cccc(F)c3)nn2)no1`, the RP-LC retention time worked out at 936 s. Then `O=C(NCc1ccco1)N(c1ccccc1)c1ccccc1`, with 810 s; and `Cn1cc(S(=O)(=O)N2CCC(C(=O)NC3CCCCC3)CC2)cc1C(=O)N1CCCC1`, with 736 s; and `Cc1cnc(C2CN(Cc3cccc(C#N)c3)C2)n1Cc1ccccc1`, with 582 s. `CCn1cc(CN2CCC(C(=O)NCc3ccccc3C)CC2)c2cc(OC)ccc21`: the RP-LC retention time came to 707 s. Then `CCNc1cc(C)nc(N2CCN(C(=O)C(C)(C)C)CC2)n1`, with 632 s; and `CCCCOc1ccc(CNC(=O)C2CCN(Cc3cn(C)c4ccc(OC)cc34)CC2)cc1`, with 804 s. Then `Cc1ccccc1C(=O)N1CCC2(C1)C(=O)Nc1ccccc12` (stereo not given), with 703 s; and `Cc1oc(C2CCN(C(=O)Cc3c(F)cccc3Cl)CC2)nc1C(=O)N1CCCC1`, with 848 s. The result for `Cc1ccc(NC(=O)N2CCC(N3CCN(Cc4ccc(F)cc4)C(=O)C3=O)CC2)cc1Cl` reads 831 s; that for `CCn1cc(-c2nc(CC(=O)NCc3ccco3)cs2)c2cccnc21`, 793 s. `COc1ccc2c(c1)CCc1sc(NC(=O)c3ccccc3F)nc1-2` registered an RP-LC retention time of 1090 s. `Cc1ccc(NC(=O)N2CCC(N3CCN(Cc4ccccc4)C3=O)CC2)cc1Cl`: the RP-LC retention time was determined as 938 s. The result for `O=C(Cn1ccc2ccc(N3CCOCC3)nc21)NCc1ccc2c(c1)OCO2` reads 791 s; that for `Cc1nnc(-c2coc(S(=O)(=O)N3CCN(C4CCCCC4)CC3)c2)o1`, 615 s; that for `CCCn1nc2n(c1=O)CCN(Cc1cn[nH]c1-c1ccc(C)c(C)c1)C2`, 644 s. Then `Cc1ccc(NS(=O)(=O)c2c(C)sc(C)c2-c2cc(C(F)(F)F)on2)cc1C`, with 1220 s. The result for `Cc1nc(-c2noc(-c3ccncc3)n2)cn1CC(=O)NCc1cccs1` reads 640 s; that for `COCCCNC(=O)C1CC(=O)N(c2n[nH]c3cccc(F)c23)C1` (stereo not given), 638 s; that for `O=C(NCC1CCOCC1)Nc1ccc(F)c(Cl)c1`, 728 s.

In turn, `Cc1noc(-c2ccnc(-n3cnc(C(=O)NCCc4ccc(Cl)cc4)c3)c2)n1` returned an RP-LC retention time of 683 s.

In turn, `Cc1nc2cccnc2n1CC1CCCN(S(=O)(=O)c2ccc3c(c2)CCC3)C1` (stereo not given) gave an RP-LC retention time of 765 s. As to `CCc1nc(-c2csc(S(=O)(=O)N3CCCC(C(=O)Nc4ccc(F)c(Cl)c4)C3)c2)no1` (stereo not given), the RP-LC retention time worked out at 1130 s. For the compound `CC(C)NC(=O)c1ccc(OCC2CCCN(C(=O)Cc3ccccc3Cl)C2)cc1` (stereo not given), the RP-LC retention time was determined as 899 s.

`Cc1ccc(-c2noc(CN3C(=O)COc4ccccc43)n2)cc1C` returned an RP-LC retention time of 1110 s. The result for `CNC(=O)c1sc2nc(-c3ccccc3)c(NCCCOC)n2c1C` reads 684 s; that for `COc1ccc(NC(=O)c2nnc(COCC(=O)NCCc3c[nH]c4ccc(Cl)cc34)s2)cc1`, 894 s; that for `CCOC(=O)C1CCc2sc(NC(=O)Cc3sc(C)nc3C)nc21` (stereo not given), 639 s.

In turn, `COc1ccc(-c2csc3ncn(-n4c(C)ccc4C)c(=O)c23)cc1OC` gave an RP-LC retention time of 905 s.

Turning to `Cc1sc2ccn(C)c(=O)c2c1C(=O)Nc1ccccc1`, the RP-LC retention time was 818 s.

`Nc1ncnc(NCc2ccco2)c1[N+](=O)[O-]` yielded an RP-LC retention time of 643 s. The compound `COc1cc(OC)cc(C(=O)N2C[C@@H]3C[C@H]2C[C@@H]3NC(=O)c2ccccc2)c1` came in with an RP-LC retention time of 732 s. The result for `CCCNc1cc(N2CCCC(CCC(=O)NCCOC)C2)ncn1` (stereo not given) reads 592 s; that for `COc1cc(OC)c(NC(=O)C2CCN(S(=O)(=O)c3cn(C(C)C)cn3)CC2)cc1Cl`, 814 s; that for `O=C(NC1(c2nc(-c3cccnc3)no2)CCCCC1)c1cc(C2CC2)[nH]n1`, 700 s.

Regarding `CN(C)c1ccc(CNC(=O)[C@@]23CCCC[C@H]2N(CCc2ccccc2)C(=O)CC3)cc1`, the RP-LC retention time was 634 s. As to `COc1ccc(NC(=O)N2CCCC(C)(C(=O)NCc3ccccc3C)C2)c(OC)c1` (stereo not given), the RP-LC retention time stood at 866 s. Then `Cc1ccc2ncn3c(=O)n(CC(=O)Nc4ccc(C(C)C)cc4)nc3c2c1`, with 754 s. For the compound `CC(C)CCN1CCC(N2CCN(S(=O)(=O)Cc3cccc(Cl)c3)CC2)C1=O` (stereo not given), the RP-LC retention time came to 699 s. Then `COc1ccc(-c2nc3cnccn3c2Nc2c(C)cccc2C)cc1OC`, with 784 s. Then `C=CCNC(=O)c1cc(C)nc2c(C)cc(C)cc12`, with 644 s; and `NC(=O)COC1CCC12CCN(C(=O)C1CCCCCC1)CC2` (stereo not given), with 740 s; and `Cn1nc(-c2cccc(NC(=O)C3c4ccccc4Oc4ccccc43)c2)ccc1=O`, with 814 s. `Cc1ccc(-c2cc(C(F)(F)F)on2)cc1S(=O)(=O)N1CCC(C)CC1` gave an RP-LC retention time of 1280 s. Then `Cc1cc(C)cc(C(=O)N2CCC(n3c(-c4ccco4)nc4cccnc43)C2)c1` (stereo not given), with 825 s; and `O=C(Cn1nc(N2CCCCCC2)c2ccccc2c1=O)NCc1ccc(F)cc1`, with 1040 s. The result for `CCCCN(C(=O)c1nc(C)n(C2CCN(S(C)(=O)=O)CC2)c1C)c1ccccc1` reads 666 s. The compound `CNC(=O)c1ccsc1NC(=O)c1coc2ccccc2c1=O` had an RP-LC retention time of 709 s. For the compound `Cn1c(=O)n(C)c2cc(S(=O)(=O)C3CCCCC3)c(NC(=O)c3c(F)cccc3F)cc21`, the RP-LC retention time was found to be 914 s. The result for `O=C(CCc1c(-c2ccc(F)cc2)nc2ccccn12)Nc1ccccc1F` reads 653 s; that for `O=C(C1=NN(Cc2ccccc2)c2ccccc2S1(=O)=O)N1CCCCC1`, 929 s; that for `CCOc1cc(C(=O)N2CCNC(=O)C2C)cc(OCC)c1OCC` (stereo not given), 638 s. Consider `Cc1noc(C)c1-c1ccc(S(=O)(=O)N2CCN(c3cccc(Cl)c3)CC2)cc1`, for which the RP-LC retention time came to 1160 s.

On to `CCOC(=O)c1ccccc1NC(=O)Cn1cnc2nc(N3CCC(C(=O)NC)CC3)sc2c1=O`, for which the RP-LC retention time is 701 s. `CN(C)c1ccc(C(CNC(=O)C(=O)Nc2ccc(F)c(Cl)c2)N2CCCC2)cc1` (stereo not given) registered an RP-LC retention time of 613 s. Compound `CCCCNC(=O)C1CCC(=O)N(c2ccc(OC)cc2)C1c1ccc(OC)c(OC)c1` (stereo not given) had an RP-LC retention time of 658 s. The result for `CC(Oc1cccc(Cl)c1)C(=O)NCC1CCOCC1` (stereo not given) reads 779 s. In the case of `Cc1ccc2[nH]cc(CCNC(=O)NC3CCCCC3)c2c1`, the RP-LC retention time stood at 874 s.

As to `CCCCc1ccc(NC(=O)NC2CCN(c3cc(N4CCCC4)cnn3)C2)cc1` (stereo not given), the RP-LC retention time was found to be 814 s.

In turn, `O=C(Nc1cccc(Cl)c1F)N1CC(F)(F)C[C@H]1CN1CCCC1` gave an RP-LC retention time of 662 s. Then `Cc1nn(C(=O)C2CC2)c(C)c1Sc1ccccc1[N+](=O)[O-]`, with 1110 s; and `COCCNC(=O)c1nnc(-c2ccc(S(=O)(=O)N3CCOCC3)cc2)o1`, with 668 s.

In turn, `O=C(NC1CCCN(c2cc(-c3ccc(F)cc3)[nH]n2)C1)c1ccc2c(c1)OCO2` (stereo not given) gave an RP-LC retention time of 796 s.

The compound `O=C1CC(c2noc(CCc3ccccc3)n2)CN1c1ccccc1` (stereo not given) registered an RP-LC retention time of 956 s. `CCCS(=O)(=O)N1CCC(c2noc(-c3ccccc3)n2)C1` (stereo not given) showed an RP-LC retention time of 933 s. For `O=C(Nc1cc(C(F)(F)F)ccc1Cl)c1ccc(N2C(=O)CCC2=O)cc1`, the RP-LC retention time turned out to be 821 s. Compound `COC(=O)c1cnc2nc(C)ccc2c1Nc1cccc(Cl)c1F` came in with an RP-LC retention time of 704 s. The result for `CCC(=O)Nc1ccc2c(c1)CN(C(=O)c1ccc(Cl)cc1)C(C(=O)N1CCCC1)C2` (stereo not given) reads 738 s. The result for `COc1cccc(N2C(=O)CC(N3CCC(C(N)=O)CC3)C2=O)c1` (stereo not given) reads 585 s; that for `CC(C)Cn1nc(CNC(=O)CSc2ccncc2)c2ccccc21`, 632 s.
